These are literature values, as cited in patent US10092188B2, “Methods and compositions for identifying subjects at risk of developing stent thrombosis” (VisEn Medical, Inc., priority 2008, dated 2018).

On to CY™ 5.5, for which the Absorbance max (absorbance maximum of commercially available fluorochrome) is on record as 675 nm. The εmax (extinction coefficient of commercially available fluorochrome) is 250,000 M^−1cm^−1.
